One may read the IC50 as the concentration that inhibits the measured activity by half.

Molecules are shown by their SMILES. Where a name gives a salt, the structure may show the parent alone.

Human Factor XIa, sequence (P03951 388-625): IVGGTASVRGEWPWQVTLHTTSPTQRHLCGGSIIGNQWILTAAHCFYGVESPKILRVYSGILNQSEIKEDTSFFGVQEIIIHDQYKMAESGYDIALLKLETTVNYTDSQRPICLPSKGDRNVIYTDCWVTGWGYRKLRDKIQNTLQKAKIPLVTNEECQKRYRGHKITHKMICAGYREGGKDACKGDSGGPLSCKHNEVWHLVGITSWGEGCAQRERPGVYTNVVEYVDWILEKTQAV
Human Factor XIa, sequence (P03951 19-387 partner): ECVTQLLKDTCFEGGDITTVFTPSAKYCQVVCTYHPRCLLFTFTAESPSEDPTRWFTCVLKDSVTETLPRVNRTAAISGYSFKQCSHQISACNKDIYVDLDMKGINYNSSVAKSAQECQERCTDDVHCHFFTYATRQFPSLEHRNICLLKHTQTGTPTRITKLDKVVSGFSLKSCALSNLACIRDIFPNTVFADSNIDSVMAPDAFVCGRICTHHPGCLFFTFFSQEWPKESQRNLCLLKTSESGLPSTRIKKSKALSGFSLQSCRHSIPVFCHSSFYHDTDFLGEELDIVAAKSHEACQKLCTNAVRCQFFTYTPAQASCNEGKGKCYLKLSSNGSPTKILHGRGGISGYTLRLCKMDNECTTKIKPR

One assay deals with Human Factor XIa (Homo sapiens (Human), UniProt P03951). As to the kind of experiment: Factor XIa enzyme activity (chromogenic substrate S-2366). The assay is classed as biochemical. As to conditions: Table 2, comparison with comparative compounds; read-out: In vitro FXIa inhibitory activity IC50. As for the experimental part:
Inhibitory activities of compounds of the present invention against factor XIa, Xa, XIIa, IXa, VIIa, plasma kallikrein or thrombin were evaluated using appropriate purified proteases and synthetic substrates. The rate of hydrolysis of the chromogenic substrate by the relevant protease was continuously measured at 405 nm.
Inhibitory activity against each enzyme was calculated as % inhibition using the equation described below. % Inhibition=[[(rate without compound)−(rate with compound)](rate without compound)]×100%. Each half maximal inhibitory concentration (IC50) value was determined by plotting the concentration of compound of the invention against the % inhibition. (1-1) Factor XIa Enzyme Activity
Human Factor XIa (Haematologic Technologies Inc.) activity was measured at an enzyme concentration of 0.1 U/mL in 150 mM NaCl, 5 mM KCl, 1 mg/mL PEG6000, 50 mM HEPES-NaOH (pH7.4) with 300 μM S-2366 (pyroGlu-Pro-Arg-pNA, Chromogenix).
Regarding `COc1cc(Nc2ccc3n(c2=O)C(c2ccc(F)cc2)CCC3)ccc1-n1cnc(C)c1` (stereo not shown) [Comp. Ex 4, reference compound], the IC50 was above 10000 nM.

Staying with this assay, now noted: human Factor XIa 0.1 U/mL, 300 μM S-2366, pH7.4; read-out: In vitro FXIa inhibitory activity IC50.
In the case of `O=C(O)c1ccc(-c2cnc([C@@H]3CCc4c(Cl)c(-c5cc(Cl)ccc5-n5cnnn5)cc(=O)n43)[nH]2)s1` [Example 387, 5-(2-{(3S)-8-chloro-7-[5-chloro-2-(1H-tetrazol-1-yl)phenyl]-5-oxo-1,2,3,5-tetrahydro-3-indolizinyl}-1H-imidazol-5-yl)-2-thiophenecarboxylic acid hydrochloride], the IC50 turned out to be 1.6 nM. Consider `O=C(O)c1cc(-c2cnc([C@@H]3CCc4cc(-c5cc(Cl)ccc5-n5cnnn5)cc(=O)n43)[nH]2)cs1` [Example 363, 4-(2-{(3S)-7-[5-chloro-2-(1H-tetrazol-1-yl)phenyl]-5-oxo-1,2,3,5-tetrahydro-3-indolizinyl}-1H-imidazol-5-yl)-2-thiophenecarboxylic acid hydrochloride], for which the IC50 worked out at 1.4 nM. Same read-out and setting: the figure for `COC(=O)Nc1ccc(-c2[nH]c([C@@H]3CCc4cc(-c5cc(Cl)ccc5-n5cnnn5)cc(=O)n43)nc2Cl)nc1` [Example 230, methyl[6-(4-chloro-2-{(3S)-7-[5-chloro-2-(1H-tetrazol-1-yl)phenyl]-5-oxo-1,2,3,5-tetrahydro-3-indolizinyl}-1H-imidazol-5-yl)-3-pyridinyl]carbamate] is 11 nM; for `O=C1CCc2cc(-c3c[nH]c(C4CCc5cc(-c6cc(Cl)ccc6-n6cnnn6)cc(=O)n54)n3)ccc2N1` (stereo not shown) [Example 86, 6-(2-{7-[5-chloro-2-(1H-tetrazol-1-yl)phenyl]-5-oxo-1,2,3,5-tetrahydro-3-indolizinyl}-1H-imidazol-4-yl)-3,4-dihydro-2(1H)-quinolinone] it is 3.9 nM; for `Nc1ccc(-c2[nH]c([C@@H]3CCc4cc(-c5cc(Cl)ccc5-n5cnnn5)cc(=O)n43)nc2Cl)cn1` [Example 198, (3S)-3-[5-(6-amino-3-pyridinyl)-4-chloro-1H-imidazol-2-yl]-7-[5-chloro-2-(1H-tetrazol-1-yl)phenyl]-2,3-dihydro-5(1H)-indolizinone] it is 1.5 nM.

As for `COC(=O)Nc1ccc(-c2cnc([C@@H]3CSc4cc(-c5cc(Cl)ccc5-n5cnnn5)cc(=O)n43)[nH]2)cc1` [Example 270, methyl[4-(2-{(3R)-7-[5-chloro-2-(1H-tetrazol-1-yl)phenyl]-5-oxo-2,3-dihydro-5H-[1,3]thiazolo[3,2-a]pyridin-3-yl}-1H-imidazol-5-yl)phenyl]carbamate], the IC50 worked out at 11 nM.

Turning to `COCCOC(=O)Nc1ccc(-c2cnc(C3CCc4cc(-c5cc(Cl)ccc5-n5cnnn5)cc(=O)n43)[nH]2)cc1` (stereo not shown) [129(2), 2-methoxyethyl[4-(2-{7-[5-chloro-2-(1H-tetrazol-1-yl)phenyl]-5-oxo-1,2,3,5-tetrahydro-3-indolizinyl}-1H-imidazol-5-yl)phenyl]carbamate], the IC50 was 4.6 nM. In the case of `COC(=O)Nc1ccc(-c2cnc(C(C)n3ccc(-c4cc(Cl)ccc4-n4cnnn4)cc3=O)[nH]2)cc1` (stereo not shown) [Example 61, methyl{4-[2-(1-{4-[5-chloro-2-(1H-tetrazol-1-yl)phenyl]-2-oxo-1(2H)-pyridinyl}ethyl)-1H-imidazol-5-yl]phenyl}carbamate], the IC50 turned out to be 14 nM. Still for that read-out and setting: in the case of `COC(=O)Nc1ccc(-c2cnc([C@@H]3CCc4cc(-c5cc(Cl)ccc5-n5cc(C#N)nn5)cc(=O)n43)[nH]2)cc1` [Example 290, methyl[4-(2-{(3S)-7-[5-chloro-2-(4-cyano-1H-1,2,3-triazol-1-yl)phenyl]-5-oxo-1,2,3,5-tetrahydro-3-indolizinyl}-1H-imidazol-5-yl)phenyl]carbamate] it was 2.5 nM; in that of `COC(=O)Nc1ccc(-c2cnc(C(Cc3cccnc3)n3ccc(-c4cc(Cl)ccc4-n4cnnn4)cc3=O)[nH]2)cc1` (stereo not shown) [Example 278, methyl(4-{2-[1-{4-[5-chloro-2-(1H-tetrazol-1-yl)phenyl]-2-oxo-1(2H)-pyridinyl}-2-(3-pyridinyl)ethyl]-1H-imidazol-5-yl}phenyl)carbamate], 5.7 nM; in that of `O=C(O)c1cc(-c2nc(F)c(C3CCc4cc(-c5cc(Cl)ccc5-n5cnnn5)cc(=O)n43)[nH]2)cs1` (stereo not shown) [Example 848, 4-(5-{7-[5-chloro-2-(1H-tetrazol-1-yl)phenyl]-5-oxo-1,2,3,5-tetrahydro-3-indolizinyl}-4-fluoro-1H-imidazol-2-yl)-2-thiophenecarboxylic acid], 1.7 nM. Still for that read-out and setting: in the case of `Cc1cc(-c2cc(Cl)ccc2-n2cnnn2)cc(=O)n1Cc1ncc(-c2csc(C(=O)O)c2)[nH]1` [Example 400, 4-[2-({4-[5-chloro-2-(1H-tetrazol-1-yl)phenyl]-6-methyl-2-oxo-1(2H)-pyridinyl}methyl)-1H-imidazol-5-yl]-2-thiophenecarboxylic acid hydrochloride] it was 13 nM. For the molecule `O=C(O)c1scc(-c2cnc([C@@H]3CCc4cc(-c5cc(Cl)ccc5-n5cnnn5)cc(=O)n43)[nH]2)c1F` [Example 834, 4-(2-{(3S)-7-[5-chloro-2-(1H-tetrazol-1-yl)phenyl]-5-oxo-1,2,3,5-tetrahydro-3-indolizinyl}-1H-imidazol-5-yl)-3-fluoro-2-thiophenecarboxylic acid], the concentration for half-maximal inhibition (IC50) came to 1.6 nM.

In the case of `COC(=O)Nc1ccc(-c2nc(Cl)c(C3CCc4cc(-c5cc(Cl)ccc5-n5cnnn5)cc(=O)n43)[nH]2)cc1` (stereo not shown) [Example 241, methyl[4-(4-chloro-5-{7-[5-chloro-2-(1H-tetrazol-1-yl)phenyl]-5-oxo-1,2,3,5-tetrahydro-3-indolizinyl}-1H-imidazol-2-yl)phenyl]carbamate], the IC50 amounted to 4.8 nM.

`Nc1ccc(-c2cnc([C@@H]3CCc4cc(-c5cc(Cl)ccc5-n5cnnn5)cc(=O)n43)[nH]2)c(Cl)n1` [Example 210, (3S)-3-[5-(6-amino-2-chloro-3-pyridinyl)-1H-imidazol-2-yl]-7-[5-chloro-2-(1H-tetrazol-1-yl)phenyl]-2,3-dihydro-5(1H)-indolizinone]: the IC50 came to 2.8 nM. As for `COC(=O)Nc1ccc(-c2cnc(C3CCc4cc(-c5cc(Cl)ccc5-n5cnnn5)cc(=O)n43)[nH]2)s1` (stereo not shown) [Example 181, methyl[5-(2-{7-[5-chloro-2-(1H-tetrazol-1-yl)phenyl]-5-oxo-1,2,3,5-tetrahydro-3-indolizinyl}-1H-imidazol-5-yl)-2-thienyl]carbamate], the IC50 turned out to be 47 nM. Consider `O=C(O)c1ccc(-c2cnc([C@@H]3CCc4cc(-c5cc(Cl)ccc5-n5cnnn5)cc(=O)n43)[nH]2)s1` [Example 347, 5-(2-{(3S)-7-[5-chloro-2-(1H-tetrazol-1-yl)phenyl]-5-oxo-1,2,3,5-tetrahydro-3-indolizinyl}-1H-imidazol-5-yl)-2-thiophenecarboxylic acid], for which the IC50 amounted to 4.2 nM.

As for `COCCC(c1nc(Cl)c(-c2ccc(NC(=O)OC)cc2)[nH]1)n1ccc(-c2cc(Cl)ccc2-n2cnnn2)cc1=O` (stereo not shown) [Example 264, methyl{4-[4-chloro-2-(1-{4-[5-chloro-2-(1H-tetrazol-1-yl)phenyl]-2-oxo-1(2H)-pyridinyl]-3-methoxypropyl)-1H-imidazol-5-yl}phenyl}carbamate], the IC50 stood at 6.1 nM.

Consider `COC(=O)Nc1ccc(-c2cnc([C@@H]3CCc4cc(-c5cc(C)ccc5-n5cnnn5)cc(=O)n43)[nH]2)cc1` [Example 309, methyl[4-(2-{(3S)-7-[5-methyl-2-(1H-tetrazol-1-yl)phenyl]-5-oxo-1,2,3,5-tetrahydro-3-indolizinyl}-1H-imidazol-5-yl)phenyl]carbamate], for which the concentration for half-maximal inhibition (IC50) was determined as 8.3 nM. Same read-out and setting: in the case of `Nc1ccc(-c2cnc([C@@H]3CCc4cc(-c5cc(Cl)ccc5-n5cnnn5)cc(=O)n43)[nH]2)c(F)n1` [Example 216, (3S)-3-[5-(6-amino-2-fluoro-3-pyridinyl)-1H-imidazol-2-yl]-7-[5-chloro-2-(1H-tetrazol-1-yl)phenyl]-2,3-dihydro-5(1H)-indolizinone] it was 3.8 nM; in that of `CCC(c1nc(-c2ccc(NC(=O)OC)cc2)c(Cl)[nH]1)n1ccc(-c2cc(Cl)ccc2-n2cnnn2)cc1=O` (stereo not shown) [Example 60, methyl{4-[5-chloro-2-(1-{4-[5-chloro-2-(1H-tetrazol-1-yl)phenyl]-2-oxo-1(2H)-pyridinyl}propyl)-1H-imidazol-4-yl]phenyl}carbamate], 7.2 nM. On the same count and under the same terms, in the case of `O=C(O)c1ccc(-c2[nH]c([C@@H]3CCc4cc(-c5cc(Cl)ccc5-n5cnnn5)cc(=O)n43)nc2F)s1` [Example 399, 5-(2-{(3S)-7-[5-chloro-2-(1H-tetrazol-1-yl)phenyl]-5-oxo-1,2,3,5-tetrahydro-3-indolizinyl}-4-fluoro-1H-imidazol-5-yl)-2-thiophenecarboxylic acid trifluoroacetate] it was 1.1 nM; in that of `O=C(O)c1cc(-c2cnc([C@@H]3CCc4c(Cl)c(-c5cc(Cl)ccc5-n5cnnn5)cc(=O)n43)[nH]2)cs1` [Example 391, 4-(2-{(3S)-8-chloro-7-[5-chloro-2-(1H-tetrazol-1-yl)phenyl]-5-oxo-1,2,3,5-tetrahydro-3-indolizinyl}-1H-imidazol-5-yl)-2-thiophenecarboxylic acid trifluoroacetate], 1.1 nM; in that of `O=C(O)c1cc(-c2cnc([C@@H]3CCc4nc(-c5cc(Cl)ccc5-n5cnnn5)cc(=O)n43)[nH]2)cs1` [Example 392, 4-(2-{(6S)-2-[5-chloro-2-(1H-tetrazol-1-yl)phenyl]-4-oxo-4,6,7,8-tetrahydropyrrolo[1,2-a]pyrimidin-6-yl}-1H-imidazol-5-yl)-2-thiophenecarboxylic acid hydrochloride], 2.1 nM.

These data come from US9732085B2, “Pyridinone and pyrimidinone derivatives as factor Xia” (ONO PHARMACEUTICAL CO., LTD., priority 2011, dated 2017).
